{
  "source": "paper PMC3397457",
  "about": "“Preclinical Evaluation of Anticancer Efficacy and Pharmacological Properties of FBA-TPQ, a Novel Synthetic Makaluvamine Analog” (Marine Drugs, 2012)",
  "key": {"Panc-1 cells [1]": {"test_system": "Panc-1 cells", "assay": "Cell cycle distribution by flow cytometry, Panc-1", "type": "cell-based, human", "settings": "Panc-1, 1 µM", "method": "The effects of FBA-TPQ on cell cycle distribution were analyzed using the previously reported methods; its effects appeared to be cell-line-dependent (Figure 2c). […] The differences in the responses of the different cell lines may be related to their expression of p53.\nTo determine the effect of FBA-TPQ on the cell cycle, cells (2–3 × 10^5) were exposed to the test compounds (0, 0.1, 0.5 or 1 µM) and incubated for 24 h prior to analysis. Cells were trypsinized, washed with PBS, and fixed in 1.5 mL of 95% ethanol and 0.5 mL of 0.9% saline solution at 4 °C overnight, followed by incubation with RNAse and staining with propidium iodide (Sigma). The DNA content was determined by flow cytometry. The cell cycle distribution was evaluated by comparing with that of the control cells."}, "Panc-1 cells [2]": {"test_system": "Panc-1 cells", "assay": "Annexin V apoptosis assay/flow cytometry, Panc-1", "type": "cell-based, human", "settings": "Panc-1, 1 µM, 48 h", "method": "The apoptotic cells were detected using a method reported previously. […] In HPAC cells, a 1 µM concentration of FBA-TPQ increased the apoptotic index two-fold higher than that seen in control cells (P < 0.01). […] In the Mia PaCa-2 cells, FBA-TPQ at 1 µM led to a three-fold increase in apoptosis (P < 0.01).\nFollowing a similar protocol as above, cells in early and late stages of apoptosis were detected using an Annexin V-FITC apoptosis detection kit from BioVision (Mountain View, CA, USA), according to the manufacturer’s protocol. For apoptosis experiments, 2–3 × 10^5 cells were exposed to the test compound (0, 0.1, 0.5 and 1.0 µM) and incubated for 48 h prior to analysis. Cells were collected and washed with serum-free media. Cells were then re-suspended in 500 µL of Annexin V binding buffer followed by addition of 5 µL of Annexin V-FITC and 5 µL of propidium iodide (PI). The samples were incubated in the dark for 5 min at room temperature and analyzed with a Becton Dickinson FACSCalibur instrument (Ex = 488 nm; Em = 530 nm). Cells that were positive for Annexin V-FITC alone (early apoptosis) and Annexin V-FITC and PI (late apoptosis) were counted. The apoptotic index was calculated against the untreated control cells."}, "HPAC cells": {"test_system": "HPAC cells", "assay": "MTT cell survival assay, HPAC", "type": "cell-based", "settings": "Homo sapiens, 72 h, read-out: Cytotoxicity IC50", "method": "We evaluated the effects of FBA-TPQ on the survival of several human pancreatic cancer cell lines, including HPAC (p53^+/+), Panc-1(p53^+/−), and Mia PaCa-2(p53^+/−), as well as normal IRM90 fetal fibroblast cells (Figure 2a). Cells were exposed to various concentrations of the test compound (0–10 µM) for 72 h, and cell survival rates were determined by the MTT assay, using a procedure reported previously. FBA-TPQ exerted potent effects against the test cancer cell lines, leading to significant decreases in cell viability.\nHuman pancreatic cancer cells were obtained from the American Type Culture Collection (Rockville, MD). All cell culture media contained 10% FBS and 1% penicillin/streptomycin. […]\nThe effect of the test compound on human pancreatic cancer cell viability, expressed as the percentage of cell survival, was determined using the MTT (3-(4,5-dimethylthiazol-2-yl)-2,5-diphenyl tetrazolium bromide) assay. […] The absorbance at 570 nm was recorded using an OPTImax microplate reader (Molecular Devices; Sunnyvale, CA, USA). The cell survival percentages were calculated by dividing the mean OD of compound-containing wells by that of DMSO-containing control wells. […]"}, "Panc-1 xenograft tumors": {"test_system": "Panc-1 xenograft tumors", "assay": "Panc-1 xenograft model in nude mice", "type": "in vivo", "settings": "for inhibition of tumor growth: 5 days/week, vs control group", "method": "Since it exerted potent effects in vitro, we determined whether FBA-TPQ could also show anti-tumor effects in vivo. Nude mice bearing Panc-1 xenograft tumors were treated with vehicle or FBA-TPQ at 5 or 10 mg/kg/day, 5 days per week.\nFigure 3 In vivo effects of FBA-TPQ administered to nude mice bearing Panc-1 xenograft tumors. (a) FBA-TPQ was administered by intraperitoneal (ip) injection at doses of 5 mg/kg/day, 5 days/week for 3 weeks and 10 mg/kg/day, 5 days/week for 2 weeks, tumors were measured […]; (b) At the end of the experiment, representative tumors were removed and photographed; (c) Animals were also monitored for changes in body weight as a surrogate marker for toxicity.\nThe animal use and care protocol was approved by the Institutional Animal Use and Care Committee of Texas Tech University Health Sciences Center. Female athymic pathogen-free nude mice (nu/nu, 4–6 weeks) were purchased from the Charles River Laboratories International. Inc. (Wilmington, MA, USA). To establish Panc-1 human pancreatic cancer xenograft tumors, cultured Panc-1 cells were harvested from monolayer cultures, washed twice with serum-free medium, re-suspended and injected sc (5 × 10^6 cells, total volume 0.2 mL) into the left inguinal area of the mice. All animals were monitored for activity, physical condition, body weight, and tumor growth. Tumor size was determined every other day by caliper measurement of two perpendicular diameters of the implant. Tumor mass (in g) was calculated by the formula, 1/2a × b^2 where “a” is the long diameter and “b” is the short diameter (in cm).\nThe animals bearing human cancer xenografts were randomly divided into various treatment groups and a control group (7–10 mice/group). The untreated control group received the vehicle only. For the Panc-1 xenograft model, FBA-TPQ was dissolved in PEG400: ethanol: saline (57.1: 14.3: 28.6, v/v/v),and was administered by intraperitoneal (ip) injection at doses of 5 and 10 mg/kg/d, 5 d/wk for 3 weeks."}},
  "data": [
    {"smiles": "O=C1C(NCc2ccc(F)cc2)=CC2=NCCc3c[nH]c1c32", "note": "[FBA-TPQ, 7-(4-fluorobenzylamino)-1,3,4,8-tetrahydropyrrolo[4,3,2-de]quinolin-8(1H)-one]", "values": [
      {"measurement": "cell cycle arrest", "setting": "Panc-1 cells [1]", "result": "arrest in the S phase"},
      {"measurement": "increase in apoptosis vs control cells", "setting": "Panc-1 cells [2]", "result": "four-fold"},
      {"measurement": "IC50", "setting": "HPAC cells", "result": "540 ± 30", "unit": "nM"},
      {"measurement": "inhibition of tumor growth", "setting": "Panc-1 xenograft tumors; 5 mg/kg/day ip", "result": 77.8, "unit": "%"},
      {"measurement": "inhibition of tumor growth", "setting": "Panc-1 xenograft tumors; 10 mg/kg/day ip", "result": 90.1, "unit": "%"},
      {"measurement": "host toxicity (body weight as surrogate marker)", "setting": "Panc-1 xenograft tumors; 5 and 10 mg/kg/day ip", "result": "No significant host toxicity"},
      {"measurement": "tumor regression/remission", "setting": "Panc-1 xenograft tumors; both treated groups (5 and 10 mg/kg/day ip)", "result": "significant tumor regression or complete remission"}
    ]}
  ]
}
